The record followed here is patent publication US7291740B2, “5-[4-[2-(N-methyl-N-(2-pyridyl)amino)ethoxy]benzyl]thiazolidine-2,4-dione Mesylate salt” (SmithKline Beecham p.l.c., priority 2000, dated 2007).

Read-outs that look alike come from different tables or passages of the source. Bounds are passed on as bounds.

A short description of the data set: Solubility of the Mesylate in water (aliquot addition until the powder dissolved). In kind it is physicochemical. The text has this:
The visual solubility was confirmed by an HPLC assay of a saturated solution.

For orientation: Solubility means how much of the substance goes into solution per volume. Higher therefore signals a readily soluble substance. For the molecule `CN(CCOc1ccc(CC2SC(=O)NC2=O)cc1)c1ccccn1.CS(=O)(=O)O` (stereo not shown) [Example 1, 5-[4-[2-(N-methyl-N-(2-pyridyl)amino)ethoxy]benzyl]thiazolidine-2,4-dione methanesulfonate Form I], the Solubility (water, visual dissolution (Form IV confirmed by HPLC assay of a saturated solution)) was > 100 mg/mL.

Regarding `CN(CCOc1ccc(CC2SC(=O)NC2=O)cc1)c1ccccn1.CS(=O)(=O)O` (stereo not shown) [Example 3, 5-[4-[2-(N-methyl-N-(2-pyridyl)amino)ethoxy]benzyl]thiazolidine-2,4-dione methanesulfonate Form II], the Solubility was > 100 mg/mL.

For `CN(CCOc1ccc(CC2SC(=O)NC2=O)cc1)c1ccccn1.CS(=O)(=O)O` (stereo not shown) [Example 4, 5-[4-[2-(N-methyl-N-(2-pyridyl)amino)ethoxy]benzyl]thiazolidine-2,4-dione methanesulfonate Form III], the Solubility was > 100 mg/mL.

`CN(CCOc1ccc(CC2SC(=O)NC2=O)cc1)c1ccccn1.CS(=O)(=O)O` (stereo not shown) [Example 11, 5-[4-[2-(N-methyl-N-(2-pyridyl)amino)ethoxy]benzyl]thiazolidine-2,4-dione methanesulfonate Form IV]: the Solubility was > 100 mg/mL.
